Data as given in patent US7196110B2, “N-substituted tricyclic 3-aminopyrazoles as inhibitors for the treatment of cell proliferative disorders” (Janssen Phamaceutica N.V., priority 2002, dated 2007).
pIC50: −log10 of the molar value. Like-named read-outs stand apart in the source and are kept apart here.

Biological target: T1, PDGF-receptor beta enzyme comprising the tyrosine kinase domain (Homo sapiens, UniProt P09619)
T1 construct: from amino acid 545 to 1106 of GenBank Access NO: AAA36427
Assay: Inhibition of PDGF-receptor kinase activity (cell-free, PLC1 peptide, 33P Flashplate)
Type: biochemical
Settings: for inhibition at 10 µM / pIC50: PDGF-R kinase activity; for inhibition at 10 µM: compound at 10 uM, read-out: Percent Inhibition @ 10 uM; for pIC50: read-out: IC50; for IC50: read-out: IC50 (μM) on PDGF-R kinase activity
Outline: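 The IC50 is the inhibitor level halving kinase activity relative to inhibitor-free wells, measured as 33P captured on a streptavidin-bound biotin-PLC1 peptide. The reaction ran 60 min at 30 °C in pH 8 Tris buffer with 1 mM DTT, 5 μM ATP and the 545–1106 kinase-domain enzyme.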

T1 sequence (P09619 545-1106): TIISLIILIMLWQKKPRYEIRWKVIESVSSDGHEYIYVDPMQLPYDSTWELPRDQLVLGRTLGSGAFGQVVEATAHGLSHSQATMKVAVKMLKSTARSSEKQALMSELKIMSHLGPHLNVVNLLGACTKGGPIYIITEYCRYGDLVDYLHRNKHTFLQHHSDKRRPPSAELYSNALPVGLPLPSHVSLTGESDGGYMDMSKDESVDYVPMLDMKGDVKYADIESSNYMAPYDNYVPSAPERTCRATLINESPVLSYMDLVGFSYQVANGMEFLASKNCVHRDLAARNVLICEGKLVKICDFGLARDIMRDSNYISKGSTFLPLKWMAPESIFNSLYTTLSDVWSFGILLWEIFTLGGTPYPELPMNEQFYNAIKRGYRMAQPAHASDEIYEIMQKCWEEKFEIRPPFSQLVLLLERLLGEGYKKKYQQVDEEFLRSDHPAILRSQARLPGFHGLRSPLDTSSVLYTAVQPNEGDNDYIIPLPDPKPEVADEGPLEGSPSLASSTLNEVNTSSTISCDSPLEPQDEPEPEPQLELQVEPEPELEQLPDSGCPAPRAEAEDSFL

SMILES | inhibition at 10 µM [%] | pIC50 | IC50 [µM]
COc1ccc(OC)c(CNc2[nH]nc3c2Cc2cc(OC)c(OC)cc2-3)c1 [Compound 274, (2,5-Dimethoxy-benzyl)-(6,7-dimethoxy-2,4-dihydro-indeno[1,2-c]pyrazol-3-yl)-amine] | 57.5 | 5.58 | –
Cc1cccc(Nc2[nH]nc3c2Cc2cc(Cl)ccc2-3)c1 [Compound 197, (6-Chloro-2,4-dihydro-indeno[1,2-c]pyrazol-3-yl)-m-tolyl-amine] | 8 | – | –
CCOc1cc2c(cc1OCC)-c1n[nH]c(NCc3ccccc3OC)c1C2 [Compound 296, (6,7-Diethoxy-2,4-dihydro-indeno[1,2-c]pyrazol-3-yl)-(2-methoxy-benzyl)-amine] | 72.5 | 5.74 | –
CCOC(=O)CCNC(=O)n1nc2c(c1Nc1ccccc1)Cc1cc(OC)c(OC)cc1-2 [Compound 411, 3-[(6,7-Dimethoxy-3-phenlylamino-4H-indeno[1,2-c]pyrazole-2-carbonyl)-amino]-propionic acid ethyl ester] | 14.5 | 7.08 | –
COCCCOc1ccc2c(c1)Cc1c-2n[nH]c1Nc1cccc(F)c1 [Compound 138, (3-Fluoro-phenyl)-[6-(3-methoxy-propoxy)-2,4-dihydro-indeno[1,2-c]pyrazol-3-yl]-amine] | 79.5 | 6.52 | –
COc1cccc(Nc2n[nH]c3c2Cc2c-3cc(OC)c3oc(C)nc23)c1 [Compound 560, (4-Methoxy-2-methyl-6,9-dihydro-3-oxa-1,6,7-triaza-cyclopenta[b]-as-indacen-8-yl)-(3-methoxy-phenyl)-amine] | 102 | 7.61 | –
Fc1ccc2c(c1)Cc1c-2n[nH]c1Nc1cc(C(F)(F)F)cc(C(F)(F)F)c1 [Compound 239, (3,5-Bis-trifluoromethyl-phenyl)-(6-fluoro-2,4-dihydro-indeno[1,2-c]pyrazol-3-yl)-amine] | 91 | 6.86 | –
COc1cc2c(cc1OC)C(C)c1c-2n[nH]c1Nc1ccc(F)c(Cl)c1 (stereo not shown) [Compound 250, (3-Chloro-4-fluoro-phenyl)-(6,7-dimethoxy-4-methyl-2,4-dihydro-indeno[1,2-c]pyrazol-3-yl)-amine] | 88 | 6.65 | –
COc1cc2c(cc1OC)-c1n[nH]c(Nc3ccc(Cl)cc3Cl)c1C2 [Compound 17, (2,4-Dichloro-phenyl)-(6,7-dimethoxy-2,4-dihydro-indeno[1,2-c]pyrazol-3-yl)-amine] | 79 | 5.45 | –
COc1cc2c(cc1OC)-c1n[nH]c(NCc3ccccn3)c1C2 [Compound 563, (6,7-Dimethoxy-2,4-dihydro-indeno[1,2-c]pyrazol-3-yl)-pyridin-2-ylmethyl-amine] | 89 | 5.84 | –
Brc1cccc(Nc2[nH]nc3c2Cc2cc4c(cc2-3)OCO4)c1 [Compound 95, (3-Bromo-phenyl)-(2,9-dihydro-5,7-dioxa-2,3-diaza-cyclopenta[a]-s-indacen-1-yl)-amine] | 91 | 7.20 | –
COc1ccc(OC)c(Nc2[nH]nc3c2C(C)c2ccccc2-3)c1 (stereo not shown) [Compound 110, (2,5-Dimethoxy-phenyl)-(4-methyl-2,4-dihydro-indeno[1,2-c]pyrazol-3-yl)-amine] | 80 | 6.72 | –
COc1cc2c(cc1OC)-c1n[nH]c(Nc3ccc(N(C)C)cc3)c1C2 [Compound 40] | 63 | 5.23 | –
COCCCOc1ccc2c(c1)Cc1c-2n[nH]c1Nc1cccc(C(=O)OC)c1 [Compound 137, 3-[6-(3-Methoxy-propoxy)-2,4-dihydro-indeno[1,2-c]pyrazol-3-ylamino]-benzoic acid methyl ester] | 71 | 5.68 | –
COc1ccc(Nc2[nH]nc3c2Cc2cc(OC)c(OC)cc2-3)cc1 [Compound 6, (6,7-Dimethoxy-2,4-dihydro-indeno[1,2-c]pyrazol-3-yl)-(4-methoxy-phenyl)-amine] | 75 | 6.88 | –
FC(F)(F)c1ccc(Nc2[nH]nc3c2Cc2cc(Cl)ccc2-3)cc1 [Compound 193, (6-Chloro-2,4-dihydro-indeno[1,2-c]pyrazol-3-yl)-(4-trifluoromethyl-phenyl)-amine] | 49 | – | –
COc1cc2c(cc1OC)-c1n[nH]c(NCc3ccccc3Br)c1C2 [Compound 575, (2-Bromo-benzyl)-(6,7-dimethoxy-2,4-dihydro-indeno[1,2-c]pyrazol-3-yl)-amine] | 99.5 | – | 0.00213
COc1ccc(Nc2[nH]nc3c2Cc2cc(OC)c(OC)cc2-3)cc1Cl [Compound 277, (3-Chloro-4-methoxy-phenyl)-(6,7-dimethoxy-2,4-dihydro-indeno[1,2-c]pyrazol-3-yl)-amine] | 88 | 5.87 | –

SMILES | inhibition at 10 µM [%] | pIC50 | IC50 [µM]
Cc1cccc2c1Cc1c-2n[nH]c1Nc1cccc(F)c1 [Compound 99, (3-Fluoro-phenyl)-(5-methyl-2,4-dihydro-indeno[1,2-c]pyrazol-3-yl)-amine] | 87.5 | 5.83 | –
COc1cc2c(cc1OC)-c1c(c(Nc3cccc(F)c3)nn1C(=O)COC(=O)C(C)C)C2 [Compound 474, Isobutyric acid 2-[3-(3-fluoro-phenylamino)-6,7-dimethoxy-4H-indeno[1,2-c]pyrazol-1-yl]-2-oxo-ethyl ester] | 91.5 | 7.20 | –
COc1cc2c(cc1OC)-c1c(c(Nc3cccc(F)c3)nn1C(=O)c1ccc(Cl)cc1)C2 [Compound 494, (4-Chloro-phenyl)-[3-(3-fluoro-phenylamino)-6,7-dimethoxy-4H-indeno[1,2-c]pyrazol-1-yl]-methanone] | 83 | 5.81 | –
COc1cc2c(cc1OC)-c1n[nH]c(Nc3ccc(Cl)cc3)c1C2 [Compound 5, (4-Chloro-phenyl)-(6,7-dimethoxy-2,4-dihydro-indeno[1,2-c]pyrazol-3-yl)-amine] | 91 | – | –
COc1ccc2c(c1)-c1n[nH]c(Nc3cc(F)ccc3F)c1C2 [Compound 176, (2,5-Difluoro-phenyl)-(7-methoxy-2,4-dihydro-indeno[1,2-c]pyrazol-3-yl)-amine] | 46.5 | 6.50 | –
COc1cc2c(cc1OC)-c1n[nH]c(Nc3cc(OC)c(OC)c(OC)c3)c1C2 [Compound 42, (6,7-Dimethoxy-2,4-dihydro-indeno[1,2-c]pyrazol-3-yl)-(3,4,5-trimethoxy-phenyl)-amine] | 85 | 6.16 | –
CCN(CC)C(=O)CC(=O)n1nc(Nc2cccc(F)c2)c2c1-c1cc(OC)c(OC)cc1C2 [Compound 537, N,N-Diethyl-3-[3-(3-fluoro-phenylamino)-6,7-dimethoxy-4H-indeno[1,2-c]pyrazol-1-yl]-3-oxo-propionamide] | 104 | 6.48 | –
c1ccc(Nc2[nH]nc3c2CCc2ccccc2-3)cc1 [Compound 93, (4,5-Dihydro-2H-benzo[g]indazol-3-yl)-phenyl-amine] | 88 | 5.99 | –
COc1cc2c(cc1OC)-c1c(c(Nc3cccc(F)c3)nn1C(=O)c1c(F)cccc1F)C2 [Compound 480, (2,6-Difluoro-phenyl)-[3-(3-fluoro-Phenylamino)-6,7-dimethoxy-4H-indeno[1,2-c]pyrazol-1-yl]-methanone] | 8 | – | –
COc1cc2c(cc1OC)-c1n[nH]c(NCc3ccc(C)cc3)c1C2 [Compound 222, (6,7-Dimethoxy-2,4-dihydro-indeno[1,2-c]pyrazol-3-yl)-(4-methyl-benzyl)-amine] | 70 | 6.09 | –
COc1cc2c(cc1OC)-c1nn(C(=O)Nc3cccc(F)c3)c(Nc3cccc(F)c3)c1C2 [Compound 395, 3-(3-Fluoro-phenylamino)-6,7-dimethoxy-4H-indeno[1,2-c]pyrazole-2-carboxylic acid (3-fluoro-phenyl)-amide] | 88 | 6.16 | –
COc1cc2c(cc1OC)-c1n[nH]c(Nc3cccc(C(=O)NCCOCCOCCOCCNC(=O)CCCCC4SCC5NC(=O)NC54)c3)c1C2 (stereo not shown) [Compound 601, 3-(6,7-Dimethoxy-2,4-dihydro-indeno[1,2-c]pyrazol-3-ylamino)-N-{2-[2-(2-{2-[5-(2-oxo-hexahydro-thieno[3,4-d]imidazol-6-yl)-pentanoylamino]-ethoxy}-ethoxy)-ethoxy]-ethyl}-benzamide] | 89 | – | 2.29
COc1ccc(Nc2[nH]nc3c2Cc2cc(OC)c(OC)cc2-3)c(OC)c1 [Compound 47, (6,7-Dimethoxy-2,4-dihydro-indeno[1,2-c]pyrazol-3-yl)-(2,4-dimethoxy-phenyl)-amine] | 47 | – | –
Clc1ccc(Nc2[nH]nc3c2Cc2ccccc2-3)cc1 [Compound 3, (4-Chloro-phenyl)-(2,4-dihydro-indeno[1,2-c]pyrazol-3-yl)-amine] | 90 | 6.80 | –
COc1cc2c(cc1OC)-c1n[nH]c(Nc3cccc(Cl)c3Cl)c1C2 [Compound 20, (2,3-Dichloro-phenyl)-(6,7-dimethoxy-2,4-dihydro-indeno[1,2-c]pyrazol-3-yl)-amine] | 77 | 5.96 | –
COc1cc2c(cc1OC)-c1n[nH]c(Nc3ccccc3OC(F)(F)F)c1C2 [Compound 15, (6,7-Dimethoxy-2,4-dihydro-indeno[1,2-c]pyrazol-3-yl)-(2-trifluoromethoxy-phenyl)-amine] | 79 | 5.72 | –
COc1cc2c(cc1OCC(O)CO)Cc1c-2n[nH]c1Nc1cccc(Cl)c1 (stereo not shown) [Compound 259] | 93 | 8.69 | –
COc1cc2c(cc1OC)-c1n[nH]c(NCc3cccc(C)c3)c1C2 [Compound 272, (6,7-Dimethoxy-2,4-dihydro-indeno[1,2-c]pyrazol-3-yl)-(3-methyl-benzyl)-amine] | 61 | 6.41 | –
